This experiment has as its target T1, Vitronectin receptor αVβ3 (Homo sapiens, UniProt P05106+P06756).
T1 construct: expressed in transfected cells; host or cells: 512P5 cells (plasma membrane preparation)
Put plainly: Vitronectin Receptor αVβ3 Binding Assay. To be noted: read-out: VnR (IC50μM).

T1 sequence (P06756 31-889 limits assumed): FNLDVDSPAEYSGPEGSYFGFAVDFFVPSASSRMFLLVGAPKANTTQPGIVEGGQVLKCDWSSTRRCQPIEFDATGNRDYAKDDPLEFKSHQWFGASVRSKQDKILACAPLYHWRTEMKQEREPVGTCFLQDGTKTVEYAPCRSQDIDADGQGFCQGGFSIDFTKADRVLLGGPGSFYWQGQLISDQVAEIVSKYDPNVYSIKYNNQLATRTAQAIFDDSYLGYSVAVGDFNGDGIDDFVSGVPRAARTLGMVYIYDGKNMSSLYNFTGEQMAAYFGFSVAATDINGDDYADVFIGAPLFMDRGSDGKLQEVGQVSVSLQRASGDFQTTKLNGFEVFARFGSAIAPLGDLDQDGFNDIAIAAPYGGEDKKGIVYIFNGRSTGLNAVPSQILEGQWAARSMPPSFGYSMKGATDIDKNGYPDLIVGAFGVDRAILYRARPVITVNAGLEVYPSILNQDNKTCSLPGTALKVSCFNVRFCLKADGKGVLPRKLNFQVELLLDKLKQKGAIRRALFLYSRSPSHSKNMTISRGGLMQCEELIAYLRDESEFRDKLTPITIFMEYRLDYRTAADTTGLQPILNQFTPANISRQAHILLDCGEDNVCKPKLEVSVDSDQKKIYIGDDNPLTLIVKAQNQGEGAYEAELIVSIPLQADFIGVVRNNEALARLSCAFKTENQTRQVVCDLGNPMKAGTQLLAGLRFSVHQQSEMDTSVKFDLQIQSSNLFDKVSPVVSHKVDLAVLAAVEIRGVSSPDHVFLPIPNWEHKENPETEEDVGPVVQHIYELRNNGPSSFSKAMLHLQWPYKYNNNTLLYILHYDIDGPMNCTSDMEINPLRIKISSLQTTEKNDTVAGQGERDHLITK
T1 sequence (P06756 891-1048 partner limits assumed): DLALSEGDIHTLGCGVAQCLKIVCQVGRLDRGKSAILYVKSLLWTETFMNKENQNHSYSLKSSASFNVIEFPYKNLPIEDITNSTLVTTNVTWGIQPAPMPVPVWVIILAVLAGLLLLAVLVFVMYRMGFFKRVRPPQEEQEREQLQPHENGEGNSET
T1 sequence (P05106 27-788): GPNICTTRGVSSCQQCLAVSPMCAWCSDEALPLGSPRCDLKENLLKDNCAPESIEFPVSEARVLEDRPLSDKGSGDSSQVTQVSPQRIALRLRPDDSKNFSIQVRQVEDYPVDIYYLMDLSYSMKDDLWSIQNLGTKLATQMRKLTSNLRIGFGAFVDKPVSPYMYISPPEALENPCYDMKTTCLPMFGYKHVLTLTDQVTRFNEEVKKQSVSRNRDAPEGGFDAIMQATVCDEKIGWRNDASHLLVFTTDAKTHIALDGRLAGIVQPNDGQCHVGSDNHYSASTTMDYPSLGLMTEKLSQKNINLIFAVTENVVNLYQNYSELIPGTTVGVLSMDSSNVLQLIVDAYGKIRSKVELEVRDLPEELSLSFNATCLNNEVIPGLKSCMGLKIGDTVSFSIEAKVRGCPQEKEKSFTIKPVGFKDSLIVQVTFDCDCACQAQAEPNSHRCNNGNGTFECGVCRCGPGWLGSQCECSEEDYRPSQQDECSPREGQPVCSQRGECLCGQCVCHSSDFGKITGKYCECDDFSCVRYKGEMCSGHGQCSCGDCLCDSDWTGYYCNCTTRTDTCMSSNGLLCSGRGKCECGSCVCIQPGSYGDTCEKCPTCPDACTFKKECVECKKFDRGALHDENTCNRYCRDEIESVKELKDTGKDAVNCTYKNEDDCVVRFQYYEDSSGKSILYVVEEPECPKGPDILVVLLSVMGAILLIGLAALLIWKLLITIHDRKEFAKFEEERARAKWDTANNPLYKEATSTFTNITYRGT

On to `O=C(Nc1ccccc1-c1ccccc1)N[C@@H](CNC(=O)c1ccc(OCCNC2=NCCN2)cc1O)C(=O)O` [Example 116, (2S)-2-{[([1,1′-biphenyl]-2-ylamino)carbonyl]amino}-3-({4-[2-(4,5-dihydro-1H-imidazol-2-ylamino)ethoxy]-2-hydroxybenzoyl}amino)propanoic acid], for which the IC50 is 2.76 µM. As for `O=C(NCCc1ccccc1)N[C@@H](CNC(=O)c1ccc(OCCNC2=NCCN2)cc1O)C(=O)O` [Example 117, (2S)-3-({4-[2-(4,5-dihydro-1H-imidazol-2-ylamino)ethoxy]-2-hydroxybenzoyl}-amino)-2-({[(2-phenylethyl)amino]carbonyl}amino)propanoic acid], the figure is 1.52 µM. On to `CC(C)C(=O)N[C@@H](CNC(=O)c1ccc(OCCNC2=NCCN2)cc1O)C(=O)O` [Example 118, (2S)-3-({4-[2-(4,5-dihydro-1H-imidazol-2-ylamino)ethoxy]-2-hydroxybenzoyl}-amino)-2-(isobutyrylamino)propanoic acid], for which the IC50 was more than 1 µM.

As to `CCCC(=O)N[C@@H](CNC(=O)c1ccc(OCCNC2=NCCN2)cc1O)C(=O)O` [Example 119, (2S)-2-(butyrylamino)-3-({4-[2-(4,5-dihydro-1H-imidazol-2-ylamino)ethoxy]-2-hydroxybenzoyl}amino)propanoic acid], the IC50 was more than 1 µM. As for `CCCCCC(=O)N[C@@H](CNC(=O)c1ccc(OCCNC2=NCCN2)cc1O)C(=O)O` [Example 120, (2S)-3-({4-[2-(4,5-dihydro-1H-imidazol-2-ylamino)ethoxy]-2-hydroxybenzoyl}-amino)-2-(hexanoylamino)propanoic acid], the figure is more than 1 µM. As for `CCCCC(=O)N[C@@H](CNC(=O)c1ccc(OCCNC2=NCCN2)cc1O)C(=O)O` [Example 121, (2S)-3-({4-[2-(4,5-dihydro-1H-imidazol-2-ylamino)ethoxy]-2-hydroxybenzoyl}-amino)-2-(pentanoylamino)propanoic acid], the figure is more than 1 µM; as for `CC(C)(C)CC(=O)N[C@@H](CNC(=O)c1ccc(OCCNC2=NCCN2)cc1O)C(=O)O` [Example 122, (2S)-3-({4-[2-(4,5-dihydro-1H-imidazol-2-ylamino)ethoxy]-2-hydroxybenzoyl}-amino)-2-[(3,3-dimethylbutanoyl)amino]propanoic acid], more than 1 µM. As for `CC1(C)C(C(=O)N[C@@H](CNC(=O)c2ccc(OCCNC3=NCCN3)cc2O)C(=O)O)C1(C)C` [Example 123, (2S)-3-({4-[2-(4,5-dihydro-1H-imidazol-2-ylamino)ethoxy]-2-hydroxybenzoyl}-amino)-2-{[(2,2,3,3-tetramethylcyclopropyl)carbonyl]amino}propanoic acid], the figure is more than 1 µM; as for `O=C(CC12CC3CC(CC(C3)C1)C2)N[C@@H](CNC(=O)c1ccc(OCCNC2=NCCN2)cc1O)C(=O)O` [Example 124, (2S)-2-{[2-(1-adamantyl)acetyl]amino}-3-({4-[2-(4,5-dihydro-1H-imidazol-2-ylamino)ethoxy]-2-hydroxybenzoyl}amino)propanoic acid], 0.734 µM; as for `C#CCCC(=O)N[C@@H](CNC(=O)c1ccc(OCCNC2=NCCN2)cc1O)C(=O)O` [Example 125, (2S)-3-({4-[2-(4,5-dihydro-1H-imidazol-2-ylamino)ethoxy]-2-hydroxybenzoyl}-amino)-2-(pent-4-ynoylamino)propanoic acid], more than 1 µM. `O=C(NC[C@H](NC(=O)C1CCCCC1)C(=O)O)c1ccc(OCCNC2=NCCN2)cc1O` [Example 126, (2S)-2-[(cyclohexylcarbonyl)amino]-3-({4-[2-(4,5-dihydro-1H-imidazol-2-ylamino)ethoxy]-2-hydroxybenzoyl}amino)propanoic acid]: the IC50 was more than 1 µM. With `O=C(Cc1ccccc1)N[C@@H](CNC(=O)c1ccc(OCCNC2=NCCN2)cc1O)C(=O)O` [Example 127, (2S)-3-({4-[2-(4,5-dihydro-1H-imidazol-2-ylamino)ethoxy]-2-hydroxybenzoyl}-amino)-2-[(2-phenylacetyl)amino]propanoic acid] the figure was 0.955 µM; with `O=C(CCc1ccccc1)N[C@@H](CNC(=O)c1ccc(OCCNC2=NCCN2)cc1O)C(=O)O` [Example 128, (2S)-3-({4-[2-(4,5-dihydro-1H-imidazol-2-ylamino)ethoxy]-2-hydroxybenzoyl}-amino)-2-[(3-phenylpropanoyl)amino]propanoic acid], more than 1 µM. As for `O=C(CC1CCCCC1)N[C@@H](CNC(=O)c1ccc(OCCNC2=NCCN2)cc1O)C(=O)O` [Example 129, (2S)-2-[(2-cyclohexylacetyl)amino]-3-({4-[2-(4,5-dihydro-1H-imidazol-2-ylamino)ethoxy]-2-hydroxybenzoyl}amino)propanoic acid], the figure is 0.635 µM; as for `O=C(/C=C/c1ccccc1)N[C@@H](CNC(=O)c1ccc(OCCNC2=NCCN2)cc1O)C(=O)O` [Example 130, (2S)-3-({4-[2-(4,5-dihydro-1H-imidazol-2-ylamino)ethoxy]-2-hydroxybenzoyl}-amino)-2-{[(E)-3-phenylprop-2-enoyl]amino}propanoic acid], more than 1 µM. `O=C(NC[C@H](NC(=O)c1ccccc1Cl)C(=O)O)c1ccc(OCCNC2=NCCN2)cc1O` [Example 131, (2S)-2-[(2-chlorobenzoyl)amino]-3-({4-[2-(4,5-dihydro-1H-imidazol-2-ylamino)ethoxy]-2-hydroxybenzoyl}amino)propanoic acid]: the IC50 was 0.405 µM. As for `Cc1ccccc1C(=O)N[C@@H](CNC(=O)c1ccc(OCCNC2=NCCN2)cc1O)C(=O)O` [Example 132, (2S)-3-({4-[2-(4,5-dihydro-1H-imidazol-2-ylamino)ethoxy]-2-hydroxybenzoyl}amino)-2-[(2-methylbenzoyl)amino]propanoic acid], the figure is 0.963 µM; as for `COc1ccccc1C(=O)N[C@@H](CNC(=O)c1ccc(OCCNC2=NCCN2)cc1O)C(=O)O` [Example 133, (2S)-3-({4-[2-(4,5-dihydro-1H-imidazol-2-ylamino)ethoxy]-2-hydroxybenzoyl}-amino)-2-[(2-methoxybenzoyl)amino]propanoic acid], more than 1 µM; as for `O=C(N[C@@H](CNC(=O)c1ccc(OCCNC2=NCCN2)cc1O)C(=O)O)c1ccc(Cl)cc1` [Example 134, (2S)-2-[(4-chlorobenzoyl)amino]-3-({4-[2-(4,5-dihydro-1H-imidazol-2-ylamino) -ethoxy]-2-hydroxybenzoyl}amino)propanoic acid], more than 1 µM.

With `Cc1ccc(C(=O)N[C@@H](CNC(=O)c2ccc(OCCNC3=NCCN3)cc2O)C(=O)O)cc1` [Example 135, (2S)-3-({4-[2-(4,5-dihydro-1H-imidazol-2-ylamino)ethoxy]-2-hydroxybenzoyl}-amino)-2-[(4-methylbenzoyl)amino]propanoic acid], the IC50 was more than 1 µM. With `COc1ccc(C(=O)N[C@@H](CNC(=O)c2ccc(OCCNC3=NCCN3)cc2O)C(=O)O)cc1` [Example 136, (2S)-3-({4-[2-(4,5-dihydro-1H-imidazol-2-ylamino)ethoxy]-2-hydroxybenzoyl}-amino)-2-[(4-methoxybenzoyl)amino]propanoic acid] the figure was more than 1 µM; with `Cc1cc(C(=O)N[C@@H](CNC(=O)c2ccc(OCCNC3=NCCN3)cc2O)C(=O)O)c(C)o1` [Example 137, (2S)-3-({4-[2-(4,5-dihydro-1H-imidazol-2-ylamino)ethoxy]-2-hydroxybenzoyl}-amino)-2-[(2,5-dimethyl-3-furoyl)amino]propanoic acid], more than 1 µM. With `O=C(NC[C@H](NC(=O)c1ccccc1Br)C(=O)O)c1ccc(OCCNC2=NCCN2)cc1O` [Example 138] the figure was 0.361 µM.

Regarding `O=C(N[C@@H](CNC(=O)c1ccc(OCCNC2=NCCN2)cc1O)C(=O)O)c1ccc(Br)cc1` [Example 139, (2S)-2-[(4-bromobenzoyl)amino]-3-({4-[2-(4,5-dihydro-1H-imidazol-2-ylamino)ethoxy]-2-hydroxybenzoyl}amino)propanoic acid], the IC50 was more than 1 µM.

For `Cc1cccc(C(=O)N[C@@H](CNC(=O)c2ccc(OCCNC3=NCCN3)cc2O)C(=O)O)c1C` [Example 140, (2S)-3-({4-[2-(4,5-dihydro-1H-imidazol-2-ylamino)ethoxy]-2-hydroxybenzoyl}-amino)-2-[(2,3-dimethylbenzoyl)amino]propanoic acid], the IC50 came to 0.0978 µM. Turning to `O=C(N[C@@H](CNC(=O)c1ccc(OCCNC2=NCCN2)cc1O)C(=O)O)c1cccc(Cl)c1` [Example 141, (2S)-2-[(3-chlorobenzoyl)amino]-3-({4-[2-(4,5-dihydro-1H-imidazol-2-ylamino)-ethoxy]-2-hydroxybenzoyl}amino)propanoic acid], the IC50 was more than 1 µM. With `CC(C)(C)COC(=O)N[C@@H](CNC(=O)c1ccc(OCCNC2=NCCCCC2)cc1O)C(=O)O` [Example 142, (2S)-3-({2-hydroxy-4-[2-(3,4,5,6-tetrahydro-2H-azepin-7-ylamino)ethoxy]benzoyl}amino)-2-{[(neopentyloxy)carbonyl]amino}propanoic acid] the figure was 1.6 µM; with `O=C(N[C@@H](CNC(=O)c1ccc(OCCNC2=NCCCCC2)cc1O)C(=O)O)OCc1ccccc1` [Example 143, (2S)-2-{[(benzyloxy)carbonyl]amino}-3-({2-hydroxy-4-[2-(3,4,5,6-tetrahydro-2-azepin-7-ylamino)ethoxy]benzoyl}amino)propanoic acid], 4.79 µM. With `O=C(N[C@@H](CNC(=O)c1ccc(OCCNC2=NCCCCC2)cc1O)C(=O)O)OCC(Cl)(Cl)Cl` [Example 153, (2S)-3-({2-hydroxy-4-[2-(3,4,5,6-tetrahydro-2H-azepin-7-ylamino)ethoxy]benzoyl}-amino)-2-{[(2,2,2-trichloroethoxy)carbonyl]amino}propanoic acid] the figure was 2.4 µM; with `CC(C)(C)COC(=O)N[C@@H](CNC(=O)c1ccc(OCCNC(=N)N)cc1O)C(=O)O` [Example 156, (2S)-3-{[4-(2-{[amino(imino)methyl]amino}ethoxy)-2-hydroxy-benzoyl]amino}-2-{[(neopentyloxy)carbonyl]amino}propanoic acid], 0.25 µM.

These data come from patent US20030186967A1, “Acylresorcinol derivatives are selective vitronectin receptor inhibitors” (American Home Products Corporation, priority 1998, published 2003).
